Several values for one entry are separate records, joined by “and”; a condition that tells them apart may be missing. Equal entries are not always repeated. Where two headings read alike, the source gives them in different places.
Test: Half-life of ADR destruction by UVA light in the presence of test compounds (decrease in absorbance at 480 nm)
Type: physicochemical
[1] = UVA light, 100 μM test compound with 0.5 μM riboflavin
[2] = UVA light, 100 μM test compound alone

Row | Compound | Half-Life of ADR Destruction, 100 μM Test Compound and 0.5 μM Riboflavin [1] | Half-Life of ADR Destruction, 100 μM Test Compound [2] [min] | further results
1 | Nc1ccc(C(=O)O)cc1O [4-Amino-3-Hydroxy Benzoic Acid] | 75.3 min | – | –
2 | NC(=O)c1cccc(N)c1 [3-Aminobenzamide] | 6.87 ± 1.20 min | – | –
3 | COc1ccc2c(c1)c(CC(=O)OCC(=O)O)c(C)n2C(=O)c1ccc(Cl)cc1 [Acemetacin, {[1-(4-Chlorobenzoyl)-5-methoxy-2-methylindole-3-yl]acetoxy} acetic acid, reference compound] | 4.63 min | – | –
4 | c1cc[nH]c1 [Pyrrole] | – | – | Half-Life of ADR Destruction, 100 μM Test Compound and 0.5 μM Riboflavin: 11.6 min
5 | Nc1ccc(Cc2ccccc2)cc1 [4-Aminodiphenylmethane] | 5.57 min | 43.0 | –
6 | N[C@@H](Cc1ccccc1O)C(=O)O [2-Hydroxy Phenylalanine] | 15.1 min | – | –
7 | Cc1ccc2cc[nH]c2c1 [6-Methyl Indole] | 24.2 ± 1.3 min | – | –
8 | NCc1ccc(CN)cc1 [4-Aminomethyl Benzylamine] | 50.2 min and 33.5 min | – | –
9 | CCCCc1ccccc1N [2-Butyl Aniline] | 10.2 min | – | –
10 | O=C1c2ccc(S(=O)(=O)O)cc2C(=O)c2ccc(S(=O)(=O)O)cc21 [Anthraquinone-2,6-disulfonic acid] | 0.283 min | 0.275 | –
11 | O=C(O)Cc1ccc(-c2ccccc2)cc1 [4-Phenyl Phenylacetic Acid] | 27.4 min | 43.0 | –
12 | COc1ccc2c(c1)c(CC(=O)O)c(C)n2C(=O)c1ccc(Cl)cc1 [Indomethacin, 1-(4-Chlorobenzoyl)-5-Methoxy-2-Methyl-indole-3-acetic acid, reference compound] | – | 100.3 | –
13 | O=c1ccoc2ccccc12 [Compound 4-Chromone, 4-Chromone] | – | 43.0 | –
14 | O=C(O)c1cccc2c1C(=O)c1ccccc1-2 [9-Fluorenone-1-carboxylic acid] | 43.0 min | 43.0 | –
15 | c1ccc2cocc2c1 [Compound 2-Benzofuran, 2-Benzofuran] | – | 23.2 | –
16 | CC(=O)c1ccc(O)cc1 [4′-Hydroxyacetophenone] | 50.2 min | 50.2 | –
17 | Nc1cccc(S(=O)(=O)O)c1 [3-Amino Benzenesulfonic acid] | 17.7 min | – | –
18 | c1ccc2c(c1)CCN2 [Indoline] | – | – | Half-Life of ADR Destruction, 100 μM Test Compound and 0.5 μM Riboflavin: 75.3 min
19 | Nc1cc(F)cc(F)c1 [3,5-Difluoro Aniline] | 15.1 min | – | –
20 | CC(C)(C)c1ccc(N)cc1 [4-tert-Butyl Aniline] | 27.4 min | – | –
21 | COc1ccc(C=CCO)cc1 [4-Methoxy Cinnamyl Alcohol] | 9.12 min | 50.2 | –
22 | NCc1ccccc1N [2-Amino Benzylamine] | 14.3 min | – | –

Row | Compound | Half-Life of ADR Destruction, 100 μM Test Compound and 0.5 μM Riboflavin [1] | Half-Life of ADR Destruction, 100 μM Test Compound [2] [min] | further results
23 | Nc1cc(N)cc(CO)c1 [3,5-Diamino Benzyl Alcohol] | 75.3 min | – | –
24 | Nc1cccc(F)c1 [3-Fluoro Aniline] | 5.90 min | – | –
25 | NC(=O)c1ccc(N)cc1 [4-Aminobenzamide] | 13.4 ± 4.7 min | – | –
26 | CCC(=O)c1ccc2cc(OC)ccc2c1 [6-Methoxy-propionaphthone] | – | – | Half-Life of ADR Destruction, 100 μM Test Compound: 30.1 min; Half-Life of ADR Destruction, 100 μM Test Compound and 0.5 μM Riboflavin: 27.4 min
27 | Coumaryl Glucose | 33.5 min | 43.0 | –
28 | Nc1ccc(OC(F)(F)F)cc1 [4-(Trifluoromethyoxy) Aniline] | – | – | Half-Life of ADR Destruction, 100 μM Test Compound and 0.5 μM Riboflavin: 43.0 min
29 | Nc1ccccc1F [2-Fluoro Aniline] | 8.36 min | – | –
30 | O=C(O)C=Cc1ccc(O)c(O)c1 [3,4-Dihydroxy Cinnamic Acid] | – | 75.3 | –
31 | Nc1cc2ccccc2cc1C(=O)O [3-Atninonaphthalene-2-carboxylic acid] | 50.2 min | 75.3 | –
32 | O=C(O)C=Cc1ccc2ccccc2c1 [3-(2-Naphthyl)acrylic acid] | 43.0 min | – | –
33 | COc1ccc(CCCCO)cc1 [4-(4-Methoxyphenyl)-1-Butanol] | 3.46 min | 43.0 | –
34 | Nc1ccc(F)cc1F [2,4-Difluoro Aniline] | 7.92 min | – | –
35 | COc1cccc(C=CC(=O)O)c1 [3-Methoxy Cinnamic Acid] | 21.5 min | 43.0 | –
36 | O=C(C(=O)c1ccco1)c1ccco1 [Furil] | 33.5 min | 43.0 | –
37 | COc1ccc(C=CC(=O)O)cc1 [4-Methoxy Cinnamic Acid] | 5.90 min | 75.3 | –
38 | C[S+](C)[O-] [Dimethylsulfoxide] | – | – | Half-Life of ADR Destruction, Test Compound (UVA light, dimethylsulfoxide 4% = 0.56 M alone): 33.5 min; Half-Life of ADR Destruction, Test Compound and 0.5 μM Riboflavin (UVA light, dimethylsulfoxide 4% = 0.56 M with 0.5 μM riboflavin): 27.4 min; Half-Life of ADR Destruction, Test Compound and 0.5 μM Riboflavin (UVA light, dimethylsulfoxide 40% - 5.6 M with 0.5 μM riboflavin): 10.4 min
39 | COc1ccc(C(=O)O)cc1 [4-Methoxy Benzoic Acid] | 33.5 min | – | –
40 | O=C(O)C1=CC=C2N=NN=C2C1 [5-Benzotriazole-carboxylic acid] | 75.3 min | – | –
41 | COc1ccc(CC(=O)O)cc1 [4-Methoxy Phenylacetic Acid] | 30.1 min | 50.2 | –
42 | CC(=O)c1ccccc1O [2′-Hydroxyacetophenone] | 43.0 min | 50.2 | –
43 | COc1ccc(CCCC(=O)O)cc1 [4-(4-Methoxyphenyl) Butyric Acid] | 10.8 min | – | –
44 | 3-Amino Phenylsulfone | 8.60 min | – | –

Row | Compound | Half-Life of ADR Destruction, 100 μM Test Compound and 0.5 μM Riboflavin [1] | Half-Life of ADR Destruction, 100 μM Test Compound [2] [min] | further results
45 | O=C(O)c1ccc(O)cc1 [4-Hydroxy Benzoic Acid] | 100.3 min | – | –
46 | O=C1c2ccccc2-c2ncccc21 [4-Aza-9-fluorenone] | 50.2 min | – | –
47 | O=c1[nH]c(=O)c2nccnc2[nH]1 [Lumazine] | 3.31 min | 5.79 | –
48 | COc1cccc(C(C)=O)c1 [3′-Methoxyacetophenone] | 33.4 min | 33.4 | –
49 | O=C(O)C(=O)c1c[nH]c2ccccc12 [3-Indole glyoxylic acid] | 43.0 min | – | –
50 | Nc1cccc(OCc2ccccc2)c1 [3-Benzyloxyaniline] | – | – | Half-Life of ADR Destruction, 100 μM Test Compound: 43.0 min; Half-Life of ADR Destruction, 100 μM Test Compound and 0.5 μM Riboflavin: 17.7 min
51 | COc1ccc(C[C@H](N)C(=O)O)cc1 [4-Methoxy Phenylalanine] | 15.1 min | – | –
52 | Cn1c2ccccc2c(=O)c2ccccc21 [10-Methyl-9(10H) Acridone] | – | – | Half-Life of ADR Destruction, 100 μM Test Compound: 16.7 min
53 | CC(=O)c1ccc[nH]1 [2-Acetyl Pyrrole] | 30.1 min | 50.2 | –
54 | CCCCc1ccc(N)cc1 [4-Butyl Anilne] | – | – | Half-Life of ADR Destruction, 100 μM Test Compound and 0.5 μM Riboflavin: 7.17 min
55 | COc1ccc(C=CC=O)cc1 [4-Methoxy Cinnamaldehyde] | 50.2 min | – | –
56 | Cc1cc(CC(=O)O)n(C)c1C(=O)c1ccc(Cl)cc1 [Zomepirac, 5-(4-Chlorobenzoyl)-1,4-dimethyl-pyrrole-2-acetic acid, reference compound] | 20.1 min | 42.0 | Half-Life of ADR Destruction, 100 μM Test Compound (UVA light, 100 μM test compound alone, listed as 5-(4-Chlorobenzoyl)-1,4-dimethyl-pyrrole-2-acetic acid (Zomepirac)): 43.0 min
57 | OCCCc1ccccc1 [3-Phenyl-1-Propanol] | 43.0 min | 50.2 | –
58 | CCCc1ccc(N)cc1 [4-Propyl Aniline] | 7.34 min | – | –
59 | O=c1[nH]c(=O)c2[nH]cnc2[nH]1 [Xanthine] | 16.7 min | 50.2 | –
60 | Nc1c(F)cccc1F [2,6-Difluoro Aniline] | 27.4 min | – | –
61 | CCC(=O)c1ccc(OC)cc1 [4-Methoxypropriophenone] | – | – | Half-Life of ADR Destruction, 100 μM Test Compound and 0.5 μM Riboflavin: 30.1 min
62 | C1=CCNC1 [Compound 3-Pyrroline, 3-Pyrroline] | 43.0 min | – | –
63 | COc1ccc2ccc(=O)oc2c1 [7-Methoxycoumarin] | 18.8 min | 20.1 | –
64 | C1CCNC1 [Pyrrolidine] | 50.2 min | – | –
